The values below come from patent US20190358247A1 (The Medical College of Wisconsin, Inc., priority 2016, published 2019).

For the assay, the target named is mitochondrial complex I (Homo sapiens, UniProt O75251+O75306+P03886). The assay is described as follows: Complex I oxygen consumption (pyruvate/malate) in permeabilized cells, Seahorse XF96. In kind it is cell-based. Set-up: IC50, complex I oxygen consumption; other: permeabilized MiaPaCa-2, added acutely. The protocol:
Respiratory enzyme activity in intact and permeabilized cells. The mitochondrial function in intact and permeabilized pancreatic cancer cells was measured using a Seahorse XF96 Extracellular Flux Analyzer (Seahorse Bioscience, North Billerica, Mass., USA). Unless specified otherwise, assays in intact cells were performed as previously described. Measurement of mitochondrial respiratory complexes in permeabilized cells was performed according to the manufacturer's instructions (Seahorse Bioscience). Briefly, intact cells were permeabilized using 1 nM Plasma Membrane Permeabilizer (PMP, Seahorse Bioscience) immediately before oxygen consumption rate (OCR) measurement by XF96. The oxygen consumption derived from mitochondrial complex I or complex II activity was measured by providing different substrates to mitochondria, e.g., pyruvate/malate for complex I and succinate for complex II activity. Rotenone, malonate and antimycin A were used as specific inhibitors of mitochondrial complex I, II and III activities, respectively.
The oxygen consumption rate was measured using the permeabilized MiaPaCa-2 cells in MAS buffer supplemented with pyruvate. The use of permeabilized cells avoids differences in cellular uptake of compounds. […] We tested the effect of pretreating cells with Mito-Met10 or Met using the permeabilized model. MiaPaCa-2 cells were treated with Met and Mito-Met10 for 24 h and the oxygen consumption studies were performed in these cells after permeabilization.

Chain of mitochondrial complex I (P03886 whole entry): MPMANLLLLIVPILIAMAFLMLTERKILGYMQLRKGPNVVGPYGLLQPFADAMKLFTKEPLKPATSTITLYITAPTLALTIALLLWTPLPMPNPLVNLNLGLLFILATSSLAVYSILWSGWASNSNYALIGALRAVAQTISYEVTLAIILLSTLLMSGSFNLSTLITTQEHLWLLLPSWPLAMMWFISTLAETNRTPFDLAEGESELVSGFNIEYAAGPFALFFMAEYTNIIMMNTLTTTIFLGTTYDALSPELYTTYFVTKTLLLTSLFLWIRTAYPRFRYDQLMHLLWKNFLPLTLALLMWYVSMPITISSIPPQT
Chain of mitochondrial complex I (O75251 39-213): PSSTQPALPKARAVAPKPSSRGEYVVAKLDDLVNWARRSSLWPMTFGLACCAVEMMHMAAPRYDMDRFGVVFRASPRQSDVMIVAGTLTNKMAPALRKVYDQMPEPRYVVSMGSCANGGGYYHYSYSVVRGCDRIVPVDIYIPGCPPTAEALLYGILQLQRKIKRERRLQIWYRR
Chain of mitochondrial complex I (P03897 whole entry, further chain): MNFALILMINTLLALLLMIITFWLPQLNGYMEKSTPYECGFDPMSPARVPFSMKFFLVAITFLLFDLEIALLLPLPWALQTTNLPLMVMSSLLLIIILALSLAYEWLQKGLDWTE
Chain of mitochondrial complex I (O75306 34-463): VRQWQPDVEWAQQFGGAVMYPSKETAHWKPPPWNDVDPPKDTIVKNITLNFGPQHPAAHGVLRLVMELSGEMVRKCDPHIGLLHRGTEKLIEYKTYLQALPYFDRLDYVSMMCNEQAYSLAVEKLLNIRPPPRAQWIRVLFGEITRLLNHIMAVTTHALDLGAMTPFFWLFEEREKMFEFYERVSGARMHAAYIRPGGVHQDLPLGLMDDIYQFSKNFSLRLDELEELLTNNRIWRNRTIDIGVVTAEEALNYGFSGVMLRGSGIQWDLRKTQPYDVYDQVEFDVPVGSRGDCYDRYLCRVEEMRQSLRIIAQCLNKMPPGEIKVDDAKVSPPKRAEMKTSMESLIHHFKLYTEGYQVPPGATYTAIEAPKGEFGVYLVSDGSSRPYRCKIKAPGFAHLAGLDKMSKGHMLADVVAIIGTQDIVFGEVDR
Chain of mitochondrial complex I (O75489 37-264, further chain): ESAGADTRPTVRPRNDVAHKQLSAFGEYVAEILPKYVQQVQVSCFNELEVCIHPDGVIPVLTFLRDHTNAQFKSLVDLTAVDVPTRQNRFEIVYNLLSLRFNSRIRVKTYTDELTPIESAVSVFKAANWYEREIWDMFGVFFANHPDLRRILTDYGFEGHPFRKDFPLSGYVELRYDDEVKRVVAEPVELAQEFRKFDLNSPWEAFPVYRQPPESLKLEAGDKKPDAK

With `Br.N=C(N)NC(=N)NCCCCCCCCCC[P+](c1ccccc1)(c1ccccc1)c1ccccc1` [Mito-Met10], the “concentration at which OCR was inhibited” value (permeabilized MiaPaCa-2, added acutely) came out at 10 µM. Also, the half-inhibitory concentration (IC50) (read-out: IC50, complex I oxygen consumption, permeabilized MiaPaCa-2, compound added acutely (FIG. 20C)) came out at 2 µM.

The term IC50 denotes the midpoint of a concentration-inhibition curve.
